Measurements as given in US4323559A, “Compounds derived from N-acetyl-nor-muramyl-L-alanyl-D-isoglutamic acid and other compounds and biologically active compositions containing such compounds” (Agencie Nationale de Valorisation de la Recherche (ANVAR), priority 1973, dated 1982).

What was measured:
[1] = tested on: Klebsiella pneumoniae; test: Anti-infectious protection of mice against Klebsiella pneumoniae infection; assay type: in vivo; conditions: compound iv. 100 μg at -24 h; for % protection: difference of % survivors vs controls; for % survival D + 3 / % survival D + 5 / % survival D + 10: mice
[2] = tested on: bovine serum albumin (BSA); test: Adjuvant activity in aqueous phase: anti-albumin antibody titer by passive hemagglutination; assay type: in vivo, Swiss mice; conditions: S.C., 100 μg with BSA 0.5 mg/animal in isotonic saline; for Titer of antibody 28th day: Swiss mice; for Titer of antibody 34th day / Titer of antibody 36th day: booster 0.1 mg BSA at day 30
Procedure: In the series of tests of which the results are indicated hereafter, the influence of the active principle according to the invention was assessed as bearing on the anti-albumin antibody rate, particularly under the following conditions. Groups of 8 two-month-old Swiss mice received by subcutaneous injection (SC) or orally (PO) 0.5 mg of antigen constituted by the bovine serum albumin (BSA) with or without the substance tested in an isotonic saline solution. This large dose of antigen, because of its closeness to the limit paralysing dose with respect to the immunising response, elicits but a weak or no immune response in the controls; it therefore constitutes a severe criterion for showing the activity of an adjuvant substance. […] The proportion of antibody was determined by passive hemagglutination by using sheep red blood cells treated with formalin and coated with the antigen studied according to the method described by […] and […]. Immunol., 100, 641-648, 1968). Blood samples were taken 14, 28, 34 and 36 days after the first injection.

Compound	% protection ([1]; K. pneumoniae im. 1,5 × 10^4) [%]	% survival D + 3 ([1]; K. pneumoniae im. 1,5 × 10^4) [%]	% survival D + 5 ([1]; K. pneumoniae im. 1,5 × 10^4) [%]	% survival D + 10 ([1]; K. pneumoniae im. 1,5 × 10^4) [%]	Titer of antibody 28th day [2]	Titer of antibody 34th day [2]	Titer of antibody 36th day [2]	% protection ([1]; K. pneumoniae im. 2 × 10^4) [%]	% survival D + 3 ([1]; K. pneumoniae im. 2 × 10^4) [%]	% survival D + 5 ([1]; K. pneumoniae im. 2 × 10^4) [%]	% survival D + 10 ([1]; K. pneumoniae im. 2 × 10^4) [%]
CC(=O)N[C@H]1C(O)O[C@H](CO)[C@@H](O)[C@@H]1OCC(=O)N[C@@H](C)C(=O)N[C@H](CCC(=O)O)C(N)=O (stereo partly drawn) [norMur-NAc-L-Ala-D-Glu(OH)-NH2, 2-(2-acetamido-2-deoxy-3-O-D-glucopyranosyl)-acetyl-L-alanyl-D-isoglutamine]	47	78	64	60	25	50	350				
CC(=O)N[C@H]1C(O)O[C@H](COC(C)=O)[C@@H](OC(C)=O)[C@@H]1O[C@H](C)C(=O)N[C@@H](C)C(=O)N[C@H](CCC(=O)O)C(N)=O (stereo partly drawn) [4,6-di-O-acetyl-Mur-NAc-L-Ala-D-Glu (OH)-NH2]								47	97	84	63
CC(=O)N[C@@H]1[C@@H](O[C@H](C)C(=O)N[C@@H](C)C(=O)N[C@H](CCC(=O)O)C(N)=O)[C@H](O)[C@@H](CO)O[C@H]1O [Mur-NAc-L-Ala-D-Glu(OH)--NH2, Mur-NAc-L-Ala-D-Glu(OH)-NH2, reference compound]	47	83	66	60	25	50	400				
CC(=O)N[C@H]1C(O)O[C@H](COC(=O)CCC(=O)O)[C@@H](O)[C@@H]1O[C@H](C)C(=O)N[C@@H](C)C(=O)N[C@H](CCC(=O)O)C(N)=O (stereo partly drawn) [6-O-succinyl-Mur-NAc-L-Ala-D-Glu, (OH)-NH2]								44	100	91	63
